What was measured:
[1] = Cytotoxicity in MRC-5 cells (VZV assay); type: cell-based; conditions: human, beside VZV
Huh-7 = assay: Cytotoxicity panel, Huh-7; conditions: read-out: Cytotoxicity (CC50 uM) Huh-7; Huh-7
HSV-1 = HSV-1 replication assay; type: cell-based; conditions: Human alphaherpesvirus 1
HBV = HBV replication assay; type: cell-based; conditions: Hepatitis B virus
Method: Ten microliters of cell culture supernatant collected on the sixth day was diluted in qPCR dilution buffer (40 μg/mL sheared salmon sperm DNA) and boiled for 15 minutes. Quantitative real time PCR was performed in […] using an Applied Biosystems 7900HT Sequence Detection System and the supporting SDS 2.4 software. Five microliters (5 μL) of boiled DNA for each sample and serial 10-fold dilutions of a quantitative DNA standard were subjected to real time Q-PCR using Platinum Quantitative PCR SuperMix-UDG (Invitrogen) and specific DNA oligonucleotide primers (IDT, Coralville, […]) HBV-AD38-qFI (5′-[…] -3′) (SEQ ID NO: 1), HBV-AD38-qR1 (5′-AGT CCA AGA GTY CTC TTA TRY AAG ACC TT-3′) (SEQ ID NO: 2), and HBV-AD38-qPI (5′-FAM CCG TGT GCA/ZEN/[…] -3′BHQ1) (SEQ ID NO: 3) at a final concentration of 0.2 μM for each primer in a total reaction volume of 15 μL. The HBV DNA copy number in each sample was interpolated from the standard curve by the SDS.24 software and the data were imported into an Excel spreadsheet for analysis.

[2] = Cytotoxicity in Huh-7 cells (HSV-1 assay); type: cell-based; conditions: human, beside HSV-1
HCMV = HCMV replication assay; type: cell-based; conditions: Human betaherpesvirus 5
[3] = Toxicity in Huh-7 cells (Dengue assay); conditions: human, Huh-7 cells
VZV = VZV replication assay; type: cell-based; conditions: Human alphaherpesvirus 3
Adenovirus = Adenovirus replication assay; type: cell-based; conditions: unidentified adenovirus
HIV = HIV infected PBMC assay; type: cell-based, HIV-1; conditions: Human immunodeficiency virus 1, PBMC
Method: Fresh human peripheral blood mononuclear cells (PBMCs) were obtained from a commercial source (Biological Specialty) and were determined to be seronegative for HIV and HBV. Depending on the volume of donor blood received, the leukophoresed blood cells were washed several times with PBS. After washing, the leukophoresed blood was diluted 1:1 with Dulbecco's phosphate buffered saline (PBS) and layered over 15 mL of Ficoll-Hypaque density gradient in a 50 ml conical centrifuge tube. These tubes were centrifuged for 30 min at 600 g. Banded PBMCs were gently aspirated from the resulting interface and washed three times with PBS. […] After incubation, PBMCs were centrifuged and resuspended in tissue culture medium. The cultures were maintained until use by half-volume culture changes with fresh IL-2 containing tissue culture medium every 3 days. […]
Following addition of test compound to the wells, 50 uL of a predetermined dilution of HIV virus (prepared from 4× of final desired in-well concentration) was added, and mixed well. […] After 7 days in culture, HIV-1 replication was quantified in the tissue culture supernatant by measurement of reverse transcriptase (RT) activity. […]
Reverse Transcriptase Activity Assay—Reverse transcriptase activity was measured in cell-free supernatants using a standard radioactive incorporation polymerization assay. […]

[4] = Cytotoxicity in PBM cells (HIV assay); type: cell-based; conditions: human, peripheral blood mononuclear cells (PBMCs), PHA-P stimulated; beside HIV
[5] = Cytotoxicity in MRC-5 cells (HCMV assay); type: cell-based; conditions: human, beside HCMV
[6] = Cytotoxicity in HepG2 cells (HBV assay); type: cell-based; conditions: human, HepG2.2.15 cells; beside HBV
Method: The 50% cytotoxic concentration for the test materials are derived by measuring the reduction of the tetrazolium dye XTT in the treated tissue culture plates. XTT is metabolized by the mitochondrial enzyme […] to a soluble formazan product in metabolically active cells. […] The 2-4 hour incubation has been empirically determined to be within linear response range for XTT dye reduction with the indicated numbers of cells for each assay. […] Data were collected by Softmax 4.6 software and imported into an Excel spreadsheet for analysis.

[7] = Cytotoxicity panel, Huh-7; conditions: human, Huh-7 cells, Cytotoxicity (CC50 uM) Huh-7, Huh-7
[8] = tested on: HCV replicon 4a (GT1b/4a NS5B chimera); assay: microbe, parasite or virus in culture; type: cell-based; conditions: Hepatitis C virus, read-out: EC50 (μM) 4a (GT1b/4a NS5B chimera)
Cytotoxicity panel, CEM = conditions: human, CEM cells, Cytotoxicity (CC50 uM) CEM
[9] = tested on: HCV replicon 2b (GT1b/2b NS5B chimera); assay: microbe, parasite or virus in culture; type: cell-based; conditions: Hepatitis C virus, read-out: EC50 (μM) 2b (GT1b/2b NS5B chimera)
[10] = tested on: HCV replicon 3a (GT1b/3a NS5B chimera); assay: microbe, parasite or virus in culture; type: cell-based; conditions: Hepatitis C virus, read-out: EC50 (μM) 3a (GT1b/3a NS5B chimera)
[11] = Cytotoxicity panel, HepG2; conditions: human, HepG2 cells
Dengue Type 2 [12] = assay: Anti-Dengue virus cytoprotection assay, Huh-7 cells; conditions: Huh-7, read-out: Dengue Type 2 Huh-7 Cells (EC50 uM)
Huh-7 cells = assay: Toxicity in Huh-7 cells (Dengue assay); conditions: read-out: CC50 uM; Cell Line Huh-7, pan-serotype Dengue table
[13] = Toxicity in Vero cells (Dengue assay); conditions: African green monkey
HepG2 = assay: Cytotoxicity panel, HepG2; conditions: read-out: Cytotoxicity (CC50 uM) HepG2; HepG2
Dengue Type 2 [14] = assay: Anti-Dengue virus cytoprotection assay, Vero cells; conditions: read-out: Dengue Type 2 Vero Cells (EC50 uM)

Structure (SMILES): CC(C)OC(=O)[C@H](C)NP(=O)(OC[C@H]1O[C@@H](n2ccc(=O)[nH]c2=S)[C@](C)(O)C1O)Oc1ccccc1 (stereo partly shown) [ENUC-01911]
- CC50 [1]: > 100 µM
- CC50 (Huh-7): > 400 µM
- EC50 (HSV-1): > 100 µM
- EC50 (HBV): > 100 µM
- CC50 [2]: > 100 µM
- EC50 (HCMV): > 100 µM
- CC50 [3]: > 100 µM
- EC50 (VZV): > 100 µM
- EC50 (Adenovirus): > 100 µM
- EC50 (HIV): > 100 µM
- CC50 at 7 days [4]: > 100 µM
- CC50 [5]: > 100 µM
- CC50 at 6 days [6]: > 100 µM

Structure (SMILES): CC(C)OC(=O)[C@H](C)N[P@](=O)(OC[C@H]1O[C@@H](n2ccc(=O)[nH]c2=S)[C@](C)(O)C1O)Oc1ccccc1 (stereo partly shown) [ENUC-02023-1]
- CC50 [7]: 252 µM
- EC50 [8]: 0.0254 µM
- CC50 (Cytotoxicity panel, CEM): > 400 µM
- EC50 [9]: 0.0445 µM
- EC50 [10]: 0.0367 µM
- CC50 [11]: > 400 µM

Structure (SMILES): CC(C)OC(=O)[C@H](C)N[P@](=O)(OC[C@H]1O[C@@H](n2ccc(=O)[nH]c2=S)[C@](C)(O)C1O)Oc1ccccc1 (stereo partly shown) [ENUC-02023]
- EC50 (Dengue Type 2 [12]): 5.62 µM
- CC50 [3]: > 100 µM
- CC50 (Huh-7 cells): > 100 µM
- CC50 [13]: > 100 µM
- CC50 (HepG2): > 400 µM
- EC50 (Dengue Type 2 [14]): 2.35 µM

— patent publication US11857560B2, “Pharmaceutical compositions comprising substituted nucleotides and nucleosides for treating viral infections” (priority 2013, dated 2024)
